Laboratory results: ChEMBL document CHEMBL5465560, “Selectivity Literature for EUbOPEN Chemogenomic Library” (2024)
One block for each compound: values may come before it.

What was measured:
[1] = target: T1, Serine/threonine-protein kinase Sgk3 (Homo sapiens) (UniProt Q96BR1); assay: Selectivity interaction (ActivX KiNativ screen (kinase selectivity in THP-1 cell lysates)) EUB0000639a SGK3; assay type: subcellular; details: lysate, at 5 µM
T1 sequence (whole entry): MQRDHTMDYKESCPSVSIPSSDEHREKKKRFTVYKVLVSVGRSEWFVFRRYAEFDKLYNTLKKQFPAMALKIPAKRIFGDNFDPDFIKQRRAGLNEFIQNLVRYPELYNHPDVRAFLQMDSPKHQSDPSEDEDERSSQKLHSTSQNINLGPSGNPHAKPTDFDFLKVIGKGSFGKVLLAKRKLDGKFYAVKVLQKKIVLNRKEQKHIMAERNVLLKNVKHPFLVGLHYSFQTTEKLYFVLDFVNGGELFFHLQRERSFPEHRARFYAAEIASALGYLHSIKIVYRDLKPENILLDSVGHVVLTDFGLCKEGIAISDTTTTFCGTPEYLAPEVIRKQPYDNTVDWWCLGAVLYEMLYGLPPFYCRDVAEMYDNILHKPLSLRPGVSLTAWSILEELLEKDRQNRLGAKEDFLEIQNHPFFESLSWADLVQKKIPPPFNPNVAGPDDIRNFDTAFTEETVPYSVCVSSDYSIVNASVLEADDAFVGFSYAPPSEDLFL

[2] = target: Ribosomal protein S6 kinase alpha-3 (Homo sapiens, UniProt P51812); assay: Selectivity interaction (ActivX KiNativ screen (kinase selectivity in THP-1 cell lysates)) EUB0000639a RPS6KA3; assay type: subcellular; details: lysate, at 1 µM
[3] = target: T2, Tyrosine-protein kinase JAK3 (Homo sapiens) (UniProt P52333); assay: Selectivity interaction (ProQinase) EUB0000171b JAK3
T2 sequence (whole entry): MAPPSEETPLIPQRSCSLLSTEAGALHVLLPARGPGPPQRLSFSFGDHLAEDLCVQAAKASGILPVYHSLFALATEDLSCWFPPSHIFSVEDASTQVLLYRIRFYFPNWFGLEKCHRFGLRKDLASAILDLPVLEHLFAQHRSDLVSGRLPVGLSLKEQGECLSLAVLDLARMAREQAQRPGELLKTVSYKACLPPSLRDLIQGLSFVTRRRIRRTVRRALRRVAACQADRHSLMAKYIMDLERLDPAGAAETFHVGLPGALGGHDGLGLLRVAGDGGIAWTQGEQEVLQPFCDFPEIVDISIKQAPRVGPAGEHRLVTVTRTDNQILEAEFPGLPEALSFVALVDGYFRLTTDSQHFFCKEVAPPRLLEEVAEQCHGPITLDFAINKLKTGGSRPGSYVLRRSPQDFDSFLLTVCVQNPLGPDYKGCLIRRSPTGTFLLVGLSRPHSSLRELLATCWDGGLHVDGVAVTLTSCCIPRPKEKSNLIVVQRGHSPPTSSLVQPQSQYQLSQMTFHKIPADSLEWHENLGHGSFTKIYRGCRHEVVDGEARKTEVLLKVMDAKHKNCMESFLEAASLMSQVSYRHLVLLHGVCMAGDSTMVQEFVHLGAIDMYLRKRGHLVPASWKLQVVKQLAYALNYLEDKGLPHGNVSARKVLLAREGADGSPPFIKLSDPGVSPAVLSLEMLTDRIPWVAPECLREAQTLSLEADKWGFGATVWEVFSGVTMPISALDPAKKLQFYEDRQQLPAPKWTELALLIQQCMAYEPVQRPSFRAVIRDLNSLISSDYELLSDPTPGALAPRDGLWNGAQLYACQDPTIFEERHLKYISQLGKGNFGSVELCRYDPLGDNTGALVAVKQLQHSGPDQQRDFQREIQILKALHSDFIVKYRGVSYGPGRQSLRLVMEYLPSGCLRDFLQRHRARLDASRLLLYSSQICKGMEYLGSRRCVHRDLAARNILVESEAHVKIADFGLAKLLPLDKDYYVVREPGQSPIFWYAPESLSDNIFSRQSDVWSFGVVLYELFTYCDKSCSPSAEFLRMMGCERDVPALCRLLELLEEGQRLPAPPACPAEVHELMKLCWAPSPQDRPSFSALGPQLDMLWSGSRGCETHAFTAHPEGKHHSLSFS

[4] = target: Calcium/calmodulin-dependent protein kinase type 1D (Homo sapiens) (UniProt Q8IU85); assay: Selectivity interaction (KinomeScan (DiscoverX)) EUB0001049a CAMK1D; details: at 1 µM
[5] = test system: Tyrosine-protein kinase ABL1 (Homo sapiens), P00519 [F317L]; assay: (§1) Selectivity interaction (Ambit KINOMEscan and KiNATiv profiling in Jurkat cells) EUB0000090b ABL1; assay type: cell-based; details: at 1 µM
[6] = test system: Tyrosine-protein kinase ABL1 (Homo sapiens), P00519 [E255K]; assay: as §1; assay type: cell-based; details: at 1 µM
[7] = test system: Tyrosine-protein kinase ABL1 (Homo sapiens), P00519 [H396P]; assay: as §1; assay type: cell-based; details: at 1 µM
[8] = test system: Tyrosine-protein kinase ABL1 (Homo sapiens), P00519 [T315I]; assay: as §1; assay type: cell-based; details: at 1 µM
[9] = test system: Tyrosine-protein kinase ABL1 (Homo sapiens), P00519 [F317I]; assay: as §1; assay type: cell-based; details: at 1 µM
[10] = test system: Tyrosine-protein kinase ABL1 (Homo sapiens), P00519 [Y253F]; assay: as §1; assay type: cell-based; details: at 1 µM
[11] = test system: Tyrosine-protein kinase ABL1 (Homo sapiens), P00519 [Q252H]; assay: as §1; assay type: cell-based; details: at 1 µM
[12] = target: Tyrosine-protein kinase ABL1 (Homo sapiens, UniProt P00519); assay: as §1; assay type: cell-based; details: at 1 µM
[13] = test system: Tyrosine-protein kinase ABL1 (Homo sapiens), P00519 [M351T]; assay: as §1; assay type: cell-based; details: at 1 µM
[14] = target: Transient receptor potential cation channel subfamily M member 6 (Homo sapiens) (UniProt Q9BX84); assay: Selectivity interaction (KinomeScan (DiscoverX)) EUB0000655a TRPM6; details: at 10 µM
[15] = target: T3, Dual specificity mitogen-activated protein kinase kinase 6 (Homo sapiens) (UniProt P52564); assay: Selectivity interaction (KinomeScan (DiscoverX)) EUB0000045b MAP2K6
T3 sequence (whole entry): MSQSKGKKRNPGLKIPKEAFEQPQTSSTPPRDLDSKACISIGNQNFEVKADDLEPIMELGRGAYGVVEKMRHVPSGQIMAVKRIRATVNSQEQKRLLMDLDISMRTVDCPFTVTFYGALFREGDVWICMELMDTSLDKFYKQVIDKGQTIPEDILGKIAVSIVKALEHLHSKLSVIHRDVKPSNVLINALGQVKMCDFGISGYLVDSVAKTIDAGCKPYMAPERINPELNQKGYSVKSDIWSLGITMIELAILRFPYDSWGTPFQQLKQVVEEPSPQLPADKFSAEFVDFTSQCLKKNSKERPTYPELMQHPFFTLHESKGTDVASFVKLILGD

[16] = target: Serine/threonine-protein kinase MRCK gamma (Homo sapiens) (UniProt Q6DT37); assay: Selectivity interaction (KinomeScan (DiscoverX)) EUB0000092b CDC42BPG; details: at 10 µM
[17] = target: Phosphatidylinositol 4-kinase alpha (Homo sapiens, UniProt P42356); assay: Selectivity interaction (ActivX KiNativ screen (ex vivo kinase selectivity in human PBMCs)) EUB0001619a PI4KA; assay type: cell-based; details: PBMC, at 1 µM

Sequence of Ribosomal protein S6 kinase alpha-3 (P51812 whole entry): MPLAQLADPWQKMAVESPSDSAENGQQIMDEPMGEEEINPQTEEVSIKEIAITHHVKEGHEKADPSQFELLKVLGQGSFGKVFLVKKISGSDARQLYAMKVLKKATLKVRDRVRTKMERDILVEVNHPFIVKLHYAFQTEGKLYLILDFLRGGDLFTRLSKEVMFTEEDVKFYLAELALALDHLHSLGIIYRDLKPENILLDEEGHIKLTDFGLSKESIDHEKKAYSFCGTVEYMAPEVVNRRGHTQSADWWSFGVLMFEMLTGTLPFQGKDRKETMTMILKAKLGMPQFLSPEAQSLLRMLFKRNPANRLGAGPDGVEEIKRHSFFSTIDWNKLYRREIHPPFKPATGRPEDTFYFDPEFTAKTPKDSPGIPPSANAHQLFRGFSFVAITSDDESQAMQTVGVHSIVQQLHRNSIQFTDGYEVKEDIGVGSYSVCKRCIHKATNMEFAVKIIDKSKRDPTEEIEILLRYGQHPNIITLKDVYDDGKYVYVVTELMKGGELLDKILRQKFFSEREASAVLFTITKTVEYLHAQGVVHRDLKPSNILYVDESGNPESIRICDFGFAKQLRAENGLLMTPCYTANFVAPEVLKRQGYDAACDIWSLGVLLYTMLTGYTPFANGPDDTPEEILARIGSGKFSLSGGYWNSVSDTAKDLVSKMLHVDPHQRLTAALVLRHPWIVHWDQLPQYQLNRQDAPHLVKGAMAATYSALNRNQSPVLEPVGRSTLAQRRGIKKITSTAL
Sequence of Transient receptor potential cation channel subfamily M member 6 (Homo sapiens) (Q9BX84 whole entry): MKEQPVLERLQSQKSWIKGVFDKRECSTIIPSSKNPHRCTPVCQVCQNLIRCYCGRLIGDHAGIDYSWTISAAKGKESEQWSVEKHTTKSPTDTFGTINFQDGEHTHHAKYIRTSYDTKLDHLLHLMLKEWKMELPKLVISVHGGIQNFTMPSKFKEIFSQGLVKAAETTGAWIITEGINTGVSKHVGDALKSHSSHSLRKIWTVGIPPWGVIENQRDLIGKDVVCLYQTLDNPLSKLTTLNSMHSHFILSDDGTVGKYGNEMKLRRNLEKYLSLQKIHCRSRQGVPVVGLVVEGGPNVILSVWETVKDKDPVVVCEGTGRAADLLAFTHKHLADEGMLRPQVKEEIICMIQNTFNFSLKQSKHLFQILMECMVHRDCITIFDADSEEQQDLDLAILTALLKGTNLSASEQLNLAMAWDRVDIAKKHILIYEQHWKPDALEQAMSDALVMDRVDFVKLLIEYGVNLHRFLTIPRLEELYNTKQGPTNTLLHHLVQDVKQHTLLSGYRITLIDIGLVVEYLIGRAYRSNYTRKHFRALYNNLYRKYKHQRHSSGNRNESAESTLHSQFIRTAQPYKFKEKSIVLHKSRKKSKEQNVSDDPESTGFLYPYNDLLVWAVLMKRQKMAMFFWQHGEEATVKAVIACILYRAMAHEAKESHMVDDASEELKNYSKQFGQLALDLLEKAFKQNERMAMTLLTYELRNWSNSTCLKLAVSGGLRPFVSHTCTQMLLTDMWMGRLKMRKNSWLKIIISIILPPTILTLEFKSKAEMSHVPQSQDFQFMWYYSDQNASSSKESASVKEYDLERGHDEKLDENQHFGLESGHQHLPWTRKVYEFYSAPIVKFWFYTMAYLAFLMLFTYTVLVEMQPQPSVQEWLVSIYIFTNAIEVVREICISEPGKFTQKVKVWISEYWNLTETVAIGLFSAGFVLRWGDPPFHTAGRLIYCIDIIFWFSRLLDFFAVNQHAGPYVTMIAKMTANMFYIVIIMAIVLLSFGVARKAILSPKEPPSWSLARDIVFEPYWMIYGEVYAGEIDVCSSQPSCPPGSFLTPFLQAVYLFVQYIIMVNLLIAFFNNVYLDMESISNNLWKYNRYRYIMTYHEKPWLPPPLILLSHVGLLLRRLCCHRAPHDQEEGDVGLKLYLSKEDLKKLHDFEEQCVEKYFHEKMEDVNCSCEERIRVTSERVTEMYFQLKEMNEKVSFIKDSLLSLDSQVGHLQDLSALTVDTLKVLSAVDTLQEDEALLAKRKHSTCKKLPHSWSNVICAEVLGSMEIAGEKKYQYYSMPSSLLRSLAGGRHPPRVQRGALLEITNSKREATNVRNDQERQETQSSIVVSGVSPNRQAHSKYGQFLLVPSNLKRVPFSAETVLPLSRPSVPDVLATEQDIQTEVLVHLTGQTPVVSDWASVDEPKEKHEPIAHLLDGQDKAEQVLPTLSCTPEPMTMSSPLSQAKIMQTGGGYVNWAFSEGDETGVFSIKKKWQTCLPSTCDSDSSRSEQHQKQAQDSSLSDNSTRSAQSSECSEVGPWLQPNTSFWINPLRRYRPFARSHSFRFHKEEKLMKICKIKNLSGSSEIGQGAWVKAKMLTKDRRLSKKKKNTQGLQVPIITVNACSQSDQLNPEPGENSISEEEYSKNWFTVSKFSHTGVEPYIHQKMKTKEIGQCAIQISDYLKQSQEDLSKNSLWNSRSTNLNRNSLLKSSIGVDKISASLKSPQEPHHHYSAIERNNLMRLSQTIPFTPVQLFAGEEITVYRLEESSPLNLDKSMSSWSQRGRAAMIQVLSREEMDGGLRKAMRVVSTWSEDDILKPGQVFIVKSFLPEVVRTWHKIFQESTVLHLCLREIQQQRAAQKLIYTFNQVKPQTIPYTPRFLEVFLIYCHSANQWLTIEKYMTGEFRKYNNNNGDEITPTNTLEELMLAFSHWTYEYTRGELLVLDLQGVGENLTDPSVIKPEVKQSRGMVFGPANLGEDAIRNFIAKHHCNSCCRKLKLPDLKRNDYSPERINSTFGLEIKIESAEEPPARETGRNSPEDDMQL
Sequence of Calcium/calmodulin-dependent protein kinase type 1D (Homo sapiens) (Q8IU85 whole entry, looked up): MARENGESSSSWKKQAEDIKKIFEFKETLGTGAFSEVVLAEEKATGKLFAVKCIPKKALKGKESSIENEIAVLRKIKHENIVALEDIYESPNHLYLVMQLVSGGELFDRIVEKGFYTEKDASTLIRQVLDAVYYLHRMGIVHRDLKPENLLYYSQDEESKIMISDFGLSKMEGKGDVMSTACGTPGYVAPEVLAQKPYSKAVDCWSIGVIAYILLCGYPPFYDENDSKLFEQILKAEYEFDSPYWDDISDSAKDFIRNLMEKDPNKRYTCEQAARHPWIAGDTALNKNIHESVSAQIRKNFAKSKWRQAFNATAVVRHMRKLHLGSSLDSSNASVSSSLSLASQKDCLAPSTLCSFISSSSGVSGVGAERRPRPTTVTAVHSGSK
Sequence of Serine/threonine-protein kinase MRCK gamma (Homo sapiens) (Q6DT37 whole entry): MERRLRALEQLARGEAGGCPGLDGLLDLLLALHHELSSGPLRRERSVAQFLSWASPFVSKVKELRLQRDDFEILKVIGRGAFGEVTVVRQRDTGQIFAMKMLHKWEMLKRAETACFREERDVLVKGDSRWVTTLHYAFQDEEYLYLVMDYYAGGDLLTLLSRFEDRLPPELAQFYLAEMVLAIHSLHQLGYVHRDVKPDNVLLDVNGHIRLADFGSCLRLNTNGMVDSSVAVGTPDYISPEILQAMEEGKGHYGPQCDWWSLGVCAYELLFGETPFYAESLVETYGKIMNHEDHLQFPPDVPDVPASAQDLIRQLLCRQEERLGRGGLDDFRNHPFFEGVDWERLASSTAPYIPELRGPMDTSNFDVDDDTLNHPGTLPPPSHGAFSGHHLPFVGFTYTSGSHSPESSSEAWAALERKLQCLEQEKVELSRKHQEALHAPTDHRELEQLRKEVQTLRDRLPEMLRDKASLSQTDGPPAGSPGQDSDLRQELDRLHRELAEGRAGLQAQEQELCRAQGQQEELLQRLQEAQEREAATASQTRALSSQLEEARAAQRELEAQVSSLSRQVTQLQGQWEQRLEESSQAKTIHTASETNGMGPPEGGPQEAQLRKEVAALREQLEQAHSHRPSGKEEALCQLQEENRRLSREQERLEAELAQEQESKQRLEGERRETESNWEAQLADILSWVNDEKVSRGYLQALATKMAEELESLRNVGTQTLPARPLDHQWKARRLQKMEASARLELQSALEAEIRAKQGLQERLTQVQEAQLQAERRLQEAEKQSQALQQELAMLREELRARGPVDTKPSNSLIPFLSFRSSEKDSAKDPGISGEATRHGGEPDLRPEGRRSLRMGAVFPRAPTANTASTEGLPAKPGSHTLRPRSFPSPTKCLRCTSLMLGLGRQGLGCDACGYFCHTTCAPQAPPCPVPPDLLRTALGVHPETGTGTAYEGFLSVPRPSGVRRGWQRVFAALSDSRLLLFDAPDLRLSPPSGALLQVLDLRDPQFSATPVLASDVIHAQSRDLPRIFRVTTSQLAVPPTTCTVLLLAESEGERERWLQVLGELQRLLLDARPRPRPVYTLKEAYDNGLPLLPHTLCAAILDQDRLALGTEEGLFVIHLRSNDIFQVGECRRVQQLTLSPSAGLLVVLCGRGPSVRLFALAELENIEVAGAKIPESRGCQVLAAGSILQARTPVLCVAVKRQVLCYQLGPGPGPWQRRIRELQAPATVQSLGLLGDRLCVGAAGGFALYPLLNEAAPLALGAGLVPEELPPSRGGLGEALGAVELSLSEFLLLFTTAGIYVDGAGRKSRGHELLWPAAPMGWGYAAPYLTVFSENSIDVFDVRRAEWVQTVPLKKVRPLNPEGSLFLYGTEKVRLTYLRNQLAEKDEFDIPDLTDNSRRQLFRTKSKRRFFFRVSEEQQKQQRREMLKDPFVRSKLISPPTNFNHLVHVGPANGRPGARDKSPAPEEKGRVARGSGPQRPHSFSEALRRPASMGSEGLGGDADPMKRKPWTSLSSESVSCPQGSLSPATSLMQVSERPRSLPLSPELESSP

% of inhibition [1]: -1.4% | % of inhibition [2]: -10.7%
Compound: CC[C@@H]1[C@H](F)C(=O)N[C@@H]1COc1nccc2cc(C(N)=O)c(OC)cc12 [ZIMLOVISERTIB]

% of control ([3]; at 1 µM): 79% | % of control ([3]; at 5 µM): 54%
Compound: C=CC(=O)Nc1cccc(C(=O)Nc2ccc(Nc3cc(-c4[nH]c(SC)nc4C)ccn3)cc2)c1

Compound: COc1cc(Nc2nc(C)cc(-c3cnn4nc(OC)ccc34)n2)cc(C(F)(F)F)c1
% of control [4]: 84%

Compound: CN(C)C/C=C/C(=O)Nc1ccc(C(=O)N2CCCC(Nc3ncc(Cl)c(-c4c[nH]c5ccccc45)n3)C2)cc1 (centres undefined)
% of control [5]: 91% | % of control [6]: 45% | % of control [7]: 95% | % of control [8]: 99% | % of control [9]: 100% | % of control [10]: 92% | % of control [11]: 58% | % of control [12]: 94% | % of control [13]: 88%

Compound: CN(C)CCOc1ccc(-c2nc(-c3ccncc3)c(-c3ccc4c(c3)CC/C4=N\O)[nH]2)cc1
% of control [14]: 100%

Compound: C=CC(=O)Nc1cc(-n2c(=O)ccc3cnc4ccc(-c5ccc(NS(C)(=O)=O)cc5)cc4c32)ccc1C
% of control ([15]; at 1 µM): 100% | % of control ([15]; at 10 µM): 70%

Compound: CCC(=O)N1CCN(c2ccc(-n3c(=O)ccc4cnc5ccc(-c6cnc7ccccc7c6)cc5c43)cc2C(F)(F)F)CC1
% of control [16]: 1.6%

Compound: N#Cc1cccc(-c2c[nH]c3ncnc(N4CCOCC4)c23)c1
% of inhibition [17]: 6%
